# Calls of active or inactive are those of the source. The calls are words filed in the database; no cut-off is given here.
# Key:
# [1] = target: Isocitrate lyase (Candida albicans) (UniProt Q9P8Q7); experiment: Inhibition of Candida albicans isocitrate lyase assessed as reduction in glyoxylate phenylhydrazone formation using phenylhydrazine and isocitrate incubated for 30 mins by spectrophotometry
# Micrococcus luteus = experiment: Antimicrobial activity against Micrococcus luteus incubated for 24 hrs; type: functional
# A549 = experiment: Cytotoxicity against human A549 cells; type: functional, cell-based
# [2] = Inhibition of porcine cerebral cortex Na+/K+ ATPase using 3-O-methylfluorescein phosphate and […] incubated for 30 mins by spectrophotometry; type: tissue-based, Sus scrofa
# [3] = target: Sortase A (Staphylococcus aureus) (UniProt Q2FV99); experiment: Inhibition of sortase A (Staphylococcus aureus)
# Proteus hauseri = experiment: Antimicrobial activity against Proteus hauseri incubated for 24 hrs; type: functional
# Salmonella typhimurium = experiment: Antimicrobial activity against Salmonella typhimurium incubated for 24 hrs; type: functional, Salmonella enterica subsp. enterica serovar Typhimurium; details: Salmonella enterica
# Staphylococcus aureus = experiment: Antimicrobial activity against Staphylococcus aureus incubated for 24 hrs; type: functional
# Escherichia coli = experiment: Antimicrobial activity against Escherichia coli incubated for 24 hrs; type: functional
# K562 = experiment: Cytotoxicity against human K562 cells; type: functional, cell-based
# Sequence of Isocitrate lyase (Candida albicans) (Q9P8Q7 whole entry): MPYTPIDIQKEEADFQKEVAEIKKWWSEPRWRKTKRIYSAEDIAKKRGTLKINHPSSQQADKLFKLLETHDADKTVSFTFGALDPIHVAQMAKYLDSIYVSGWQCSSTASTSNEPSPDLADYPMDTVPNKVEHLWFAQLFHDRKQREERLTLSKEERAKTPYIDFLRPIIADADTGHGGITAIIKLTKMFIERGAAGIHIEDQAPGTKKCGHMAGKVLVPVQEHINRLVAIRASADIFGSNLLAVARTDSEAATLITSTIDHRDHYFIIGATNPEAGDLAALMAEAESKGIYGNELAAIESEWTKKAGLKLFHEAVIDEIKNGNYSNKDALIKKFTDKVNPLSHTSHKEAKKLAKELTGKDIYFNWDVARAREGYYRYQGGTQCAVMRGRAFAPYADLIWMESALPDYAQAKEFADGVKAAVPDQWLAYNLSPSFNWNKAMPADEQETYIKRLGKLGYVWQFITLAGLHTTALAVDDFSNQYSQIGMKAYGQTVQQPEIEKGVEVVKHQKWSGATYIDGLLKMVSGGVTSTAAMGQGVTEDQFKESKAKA
inhibition [1],MIC (Micrococcus luteus),IC50 [2],inhibition [3],MIC (Proteus hauseri),MIC (Salmonella typhimurium),MIC (Staphylococcus aureus),MIC (Escherichia coli),Structure (SMILES),IC50 (A549),IC50 (K562)
inactive,> 100 µg/mL,78.1 µM,inactive,> 100 µg/mL,> 100 µg/mL,> 100 µg/mL,> 100 µg/mL,C[C@H]1C(=O)N2c3ccccc3[C@]3(O)C[C@@H](n4cnc5ccccc5c4=O)C(=O)N1[C@H]23,21.9 µM,50.4 µM
inactive,> 100 µg/mL,19.5 µM,inactive,> 100 µg/mL,> 100 µg/mL,> 100 µg/mL,> 100 µg/mL,CC[C@H]1C(=O)N2c3ccccc3[C@]3(O)C[C@@H](n4cnc5ccccc5c4=O)C(=O)N1[C@H]23,19.3 µM,25.9 µM
inactive,> 100 µg/mL,17.4 µM,inactive,100 µg/mL,> 100 µg/mL,> 100 µg/mL,> 100 µg/mL,C[C@@H]1NC(=O)[C@@H](Cc2c[nH]c3ccccc23)n2c1nc1ccccc1c2=O [FUMIQUINAZOLINE F],> 100 µM,> 100 µM
inactive,100 µg/mL,20.2 µM,inactive,> 100 µg/mL,100 µg/mL,> 100 µg/mL,> 100 µg/mL,CC(C)[C@@H]1N[C@@H]2N(C1=O)c1ccccc1[C@]21C[C@@H]2C(=O)N[C@](C)(O1)c1nc3ccccc3c(=O)n12 [FUMIQUINAZOLINE L],> 100 µM,> 100 µM
inactive,> 100 µg/mL,34.3 µM,inactive,> 100 µg/mL,> 100 µg/mL,> 100 µg/mL,> 100 µg/mL,CC(C)[C@@H]1N[C@@H]2N(C1=O)c1ccccc1[C@]2(O)C[C@@H]1C(=O)N[C@@H](C)c2nc3ccccc3c(=O)n21,15.8 µM,13.8 µM

# The remaining lines, values behind:
Structure (SMILES),inhibition [1],MIC (Micrococcus luteus),IC50 [2],inhibition [3],MIC (Proteus hauseri),MIC (Salmonella typhimurium),MIC (Staphylococcus aureus),MIC (Escherichia coli),IC50 (A549),IC50 (K562)
C[C@@H]1O[C@@H](O[C@H]2C[C@@H](O)[C@]3(CO)[C@H]4[C@H](O)C[C@]5(C)[C@@H](C6=CC(=O)OC6)CC[C@]5(O)[C@@H]4CC[C@]3(O)C2)[C@H](O)[C@H](O)[C@H]1O [OUABAIN],–,–,6.43 µM,–,–,–,–,–,–,–
CC(C)[C@H]1C(=O)N2c3ccccc3[C@]3(O)C[C@@H](n4cnc5ccccc5c4=O)C(=O)N1[C@H]23,inactive,> 100 µg/mL,37.9 µM,inactive,> 100 µg/mL,> 100 µg/mL,> 100 µg/mL,> 100 µg/mL,18.6 µM,14.4 µM
CC1(C)S[C@@H]2[C@H](NC(=O)[C@H](N)c3ccccc3)C(=O)N2[C@H]1C(=O)O [AMPICILLIN],–,0.2 µg/mL,–,–,0.39 µg/mL,0.78 µg/mL,0.78 µg/mL,3.13 µg/mL,–,–
COc1cccc2c1C(=O)c1c(O)c3c(c(O)c1C2=O)C[C@@](O)(C(=O)CO)C[C@@H]3O[C@H]1C[C@H](N)[C@H](O)[C@H](C)O1 [DOXORUBICIN],–,–,–,–,–,–,–,–,1.83 µM,1.46 µM
CC(C)[C@H]1C(=O)N2c3ccccc3[C@]3(O)C[C@H](n4cnc5ccccc5c4=O)C(=O)N1[C@H]23,inactive,> 100 µg/mL,56.8 µM,inactive,100 µg/mL,100 µg/mL,100 µg/mL,> 100 µg/mL,29.2 µM,17.8 µM
